Patent US9828333B2, “Compounds for the treatment of influenza” (CHRISTIAN-ALBRECHTS-UNIVERSITAT ZU KIEL, priority 2011, dated 2017)

Tests used:
[1] = molecular target: neuraminidase of influenza A virus A/342/2009 (H1N1, oseltamivir resistant) (UniProt P03468); assay type: biochemical
[2] = system: influenza A virus A/342/2009 (H1N1; oseltamivir-resistant); assay type: cell-based

CCC(CC)O[C@@H]1C=C(C(=O)O)C[C@H](NC(C)=N)[C@H]1NC(C)=O [Compound 3]
50% inhibitory concentration higher compared to zanamivir [1]: 50 fold
90% inhibitory concentration, A/342/2009 [2]: 16.0 (22.3) μM
95% inhibitory concentration (values in parentheses), A/342/2009 [2]: 16.0 (22.3) μM

CCC(CC)O[C@@H]1C=C(C(=O)O)C[C@H](NC(=N)N)[C@H]1NC(C)=O [Compound 9, (3R,4R,5S)-4-acetamido-5-(N-guanidino)-3-(1-ethylpropoxy)cyclohex-1-en-1-carboxylic acid]
90% inhibitory concentration, A/342/2009 [2]: 3.0 (14.2) μM
95% inhibitory concentration (values in parentheses), A/342/2009 [2]: 3.0 (14.2) μM

CCOC(=O)C1=C[C@@H](OC(CC)CC)[C@H](NC(C)=O)[C@@H](N)C1 [Oseltamivir, (3R,4R,5S)-4-acetamido-5-amino-3-(1-ethylpropoxy)cyclohex-1-en-1-carboxylic acid ethyl ester, reference compound]
90% inhibitory concentration, A/342/2009 [2]: resistant
